Read-outs that look alike come from different tables or passages of the source.
Key:
Chimera 1 = Chimera 1 (Homo sapiens, UniProt P36544, M226I/T225V); test: [3H]A-585539 radioligand binding, HEK-293 membranes; set-up: expressed in transfected cells; conditions: membranes of HEK-293 cells expressing Chimera 1; read-out: Radioligand Binding KD ± SEM
Chimera 2 = Chimera 2 (Homo sapiens, UniProt P36544, M226I/T225V); test: [3H]A-585539 radioligand binding, HEK-293 membranes/homogenates; set-up: expressed in transfected cells
Chimera 2, sequence (P36544 with tags, fused parts or gaps T225V/M226I): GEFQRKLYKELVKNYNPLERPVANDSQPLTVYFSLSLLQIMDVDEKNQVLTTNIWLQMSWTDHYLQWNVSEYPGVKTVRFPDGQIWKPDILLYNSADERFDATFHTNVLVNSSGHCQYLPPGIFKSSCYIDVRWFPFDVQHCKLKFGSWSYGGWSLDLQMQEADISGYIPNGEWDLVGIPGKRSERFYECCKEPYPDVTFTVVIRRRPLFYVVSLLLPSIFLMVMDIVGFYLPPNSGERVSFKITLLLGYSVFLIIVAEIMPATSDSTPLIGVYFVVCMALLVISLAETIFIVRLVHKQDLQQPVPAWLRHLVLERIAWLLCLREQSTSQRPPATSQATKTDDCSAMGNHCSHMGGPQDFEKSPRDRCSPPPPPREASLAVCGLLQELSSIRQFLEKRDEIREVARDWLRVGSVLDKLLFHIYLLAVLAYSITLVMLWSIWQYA

Chimera 1, sequence (P36544 with tags, fused parts or gaps T225V/M226I): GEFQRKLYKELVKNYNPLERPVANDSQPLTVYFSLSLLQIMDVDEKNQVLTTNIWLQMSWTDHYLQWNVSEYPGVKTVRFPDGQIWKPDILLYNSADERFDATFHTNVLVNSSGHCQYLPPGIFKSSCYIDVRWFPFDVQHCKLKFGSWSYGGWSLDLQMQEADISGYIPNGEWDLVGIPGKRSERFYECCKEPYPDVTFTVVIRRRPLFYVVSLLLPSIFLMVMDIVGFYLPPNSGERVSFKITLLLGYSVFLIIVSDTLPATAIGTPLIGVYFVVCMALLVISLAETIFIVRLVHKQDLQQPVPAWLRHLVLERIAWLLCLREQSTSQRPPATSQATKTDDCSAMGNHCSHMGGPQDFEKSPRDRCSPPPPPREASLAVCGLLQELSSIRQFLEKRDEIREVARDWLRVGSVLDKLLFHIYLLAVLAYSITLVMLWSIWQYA

C[N+]1(C)C[C@@H]2C[C@H]1CN2c1ccc(-c2ccccc2)nn1.[I-] [[^3H]A585539, [^3H]-(S,S)-2,2-dimethyl-5-(6-phenyl-pyridazin-3-yl)-5-aza-2-azonia-bicyclo[2.2.1]heptane iodide]
Kd (Chimera 1): 0.65 nM | Bmax, saturation binding (Chimera 2; 10 μM genistein, 4 μg/well): 6058.0±809.3 fmol/mg protein | Kd (Chimera 2; 10 μM genistein, 4 μg/well, read-out: Kd, saturation binding): 0.1 ± 0.01 nM | Bmax, saturation binding (Chimera 2; 10 μM genistein, 20 μg/well): 7251.0±587.8 fmol/mg protein | Kd (Chimera 2; 10 μM genistein, 20 μg/well, read-out: Kd, saturation binding): 0.18 ± 0.01 nM | Bmax, representative saturation binding (Chimera 2; absence of genistein): 6014 fmol/mg protein | Kd (Chimera 2; absence of genistein, read-out: Kd, representative saturation binding): 0.15 nM | Bmax (Chimera 2; homogenates of HEK-293-Chimera 2 cells): 29167 fmol/mg protein | Kd (Chimera 2; membranes of HEK-293 cells expressing Chimera 2, read-out: Radioligand Binding KD ± SEM): 0.17 nM | Bmax, representative saturation binding (Chimera 2; presence of 10 μM genistein): 6528 fmol/mg protein | Kd (Chimera 2; presence of 10 μM genistein, read-out: Kd, representative saturation binding): 0.17 nM | Bmax, saturation binding (Chimera 2; without genistein, 4 μg/well): 5979.0±530.3 fmol/mg protein | Kd (Chimera 2; without genistein, 4 μg/well, read-out: Kd, saturation binding): 0.11 ± 0.01 nM | Bmax, saturation binding (Chimera 2; without genistein, 20 μg/well): 7016.0±798.2 fmol/mg protein | Kd (Chimera 2; without genistein, 20 μg/well, read-out: Kd, saturation binding): 0.17 ± 0.02 nM

— patent US8759504B2, “Cholinergic/serotoninergic receptor and uses thereof” (AbbVie Inc., priority 2007, dated 2014)
